“And” between values parts separate entries of the source, which are not always exact repeats. Equal entries are not always repeated. Where two headings read alike, the source gives them in different places. *1 amine or outer side, *2 acyl side, *3 side chain or, on linkers, in order; H or OH if unused. Side-chain parts run from the residue outwards. [ ]: non-standard residue; d: D form. The star is where a group is joined. C20 diacid = O=C(O)CCCCCCCCCCCCCCCCCCC(=O)*; γGlu = O=C(O)[C@H](CCC(=O)[*:2])N[*:1]; εLys = N[C@@H](CCCCN[*:1])C(=O)[*:2]; pGlu = O=C1CC[C@@H](C(=O)O)N1; αMeL = CC(C)C[C@](C)(N)C(=O)O; AEEA = NCCOCCOCC(=O)O; Aib = CC(C)(N)C(=O)O
Tests used:
[1] = Pharmacokinetics in CD-1 mice, single 100 nmol/kg subcutaneous dose; assay type: in vivo; details: mouse, plasma, sc, male CD-1 mice, mean
Protocol: (§1) Plasma concentrations of compounds were determined by LC/MS methods. For each assay, the compound and an internal standard (IS), were extracted from 100% mouse, rat, pig, or monkey plasma (70 μL) using Isopropanol-Methanol. Two distinct layers were formed upon centrifugation with the compound and the IS located in the supernatant layer. An aliquot of the supernatant (150 μL) was transferred to a Waters Sirocco Protein Precipitation Plate. The supernatant was eluted using a positive pressure manifold. The supernatant was mixed with 100-2 Water-Formic acid (400 μL) in a pretreated Sep-Pak tC18 SPE plate and eluted to waste. The peptide and IS were eluted with Acetonitrile-Formic acid (100 μL) in 2 steps (50 μL each step). The elution (40 μL) from SPE plate was mixed with diluent solution (1.875 μL 5× invitrosol and 3.125 μL 1% formic acid in water, 80 μL). A final sample (10 μl) was loaded onto a Xselect CSH C18 IS column (3.5 μm 2.1×20 mm). The column effluent was directed into a Thermo Fisher Scientific Orbitrap (Exploris 240) mass spectrometer for detection and quantitation.
Male CD-1 mice were administered a single subcutaneous dose (100 nmol/kg) of compound in 40 mM Tris-HCl 5% D-mannitol (pH 8) at a volume of 5 mL/kg. Blood was collected at 6, 24, 48, 96, 168, 240, 288, and 336 hours postdose for pharmacokinetic characterization.

[2] = Pharmacokinetics in Cynomolgus monkeys, single subcutaneous or intravenous dose; assay type: in vivo
Protocol: as §1
Male and female Cynomolgus monkeys were administered a single subcutaneous dose or intravenous dose (183 to 190 nmol/kg) of compound in 40 mM Tris-HCl 5% D-mannitol (pH 8) at a volume of 0.5 mL/kg. Blood was collected from each animal at 0.5, 3, 6, 24, 48, 72, 96, 168, 240, 336, 408, and 504 hours postdose for pharmacokinetic characterization.

[3] = both sexes, cynomolgus monkey, plasma, iv, 187 nmol/kg, single intravenous dose 187 nmol/kg, Mean
[4] = both sexes, cynomolgus monkey, plasma, iv, 187 nmol/kg, single intravenous dose 187 nmol/kg, individual animal
[5] = single intravenous dose 187 nmol/kg, individual animal
[6] = single subcutaneous dose 187 nmol/kg, individual animal
[7] = both sexes, cynomolgus monkey, plasma, iv, 183 nmol/kg, single intravenous dose 183 nmol/kg, Mean
[8] = both sexes, cynomolgus monkey, plasma, iv, 183 nmol/kg, single intravenous dose 183 nmol/kg, individual animal
[9] = single intravenous dose 183 nmol/kg, individual animal
[10] = single subcutaneous dose 183 nmol/kg, individual animal
[11] = both sexes, cynomolgus monkey, plasma, iv, 190 nmol/kg, single intravenous dose 190 nmol/kg, Mean
[12] = both sexes, cynomolgus monkey, plasma, iv, 190 nmol/kg, single intravenous dose 190 nmol/kg, individual animal
[13] = single intravenous dose 190 nmol/kg, individual animal
[14] = single subcutaneous dose 190 nmol/kg, individual animal

Which results are given for “Ac-GSPSIVTS[αMeL]DVPT[Aib][αMeL]LQKILEQERAEKARQQAK([γGlu-AEEA-εLys-C20 diacid])EAAEILAQV-NH2 [SEQ ID NO: 1, Ac-GSPSIVTS αMeL DVPT Aib αMeL LQKILEQERAEKARQQAK(γE-(2-[2-(2-Amino-ethoxy)-ethoxy]-acetyl)-ϵK-CO-(CH2)18-CO2H)EAAEILAQV-NH2]”?
AUC0-inf [1]: 25.7 µM·h; CL/F [1]: 94.6 mL/day/kg; Cmax [1]: 0.327 µM; Tmax [1]: 24 h; half-life [1]: 22.8 h; clearance [2, 3]: 14.7 mL/day/kg; half-life [2, 3]: 91.6 h; clearance [2, 4]: 12.2 mL/day/kg; half-life [2, 4]: 91.9 h; half-life ([2]; both sexes, cynomolgus monkey, plasma, sc, 187 nmol/kg, single subcutaneous dose 187 nmol/kg, Mean): 81.9 h; CL/F ([2]; both sexes, cynomolgus monkey, plasma, sc, 187 nmol/kg, single subcutaneous dose 187 nmol/kg, Mean, read-out: CL/F (converted)): 19.5 mL/day/kg; Tmax ([2]; both sexes, cynomolgus monkey, plasma, sc, 187 nmol/kg, single subcutaneous dose 187 nmol/kg, Mean, read-out: Tmax): 48 h; half-life ([2]; both sexes, cynomolgus monkey, plasma, sc, 187 nmol/kg, single subcutaneous dose 187 nmol/kg, individual animal): 72 h; CL/F ([2]; both sexes, cynomolgus monkey, plasma, sc, 187 nmol/kg, single subcutaneous dose 187 nmol/kg, individual animal, read-out: CL/F (converted)): 20.8 mL/day/kg; Tmax ([2]; both sexes, cynomolgus monkey, plasma, sc, 187 nmol/kg, single subcutaneous dose 187 nmol/kg, individual animal, read-out: Tmax): 48 h; AUC0-inf ([2]; both sexes, cynomolgus monkey, plasma, sc, single subcutaneous dose 187 nmol/kg, Mean, read-out: AUC0-inf): 238 µM·h; Cmax ([2]; both sexes, cynomolgus monkey, plasma, sc, single subcutaneous dose 187 nmol/kg, Mean, read-out: Cmax): 1.18 µM; AUC0-inf ([2]; both sexes, cynomolgus monkey, plasma, single intravenous dose 187 nmol/kg, Mean, read-out: AUC0-inf): 315 µM·h; C0 ([2]; both sexes, cynomolgus monkey, plasma, single intravenous dose 187 nmol/kg, Mean, read-out: C0): 4.6 µM; AUC0-inf [2, 5]: 369 µM·h and 261 µM·h; C0 [2, 5]: 5.04 µM and 4.15 µM; CL [2, 5]: 17.2 mL/day/kg; T1/2 [2, 5]: 91.3 h; AUC0-inf [2, 6]: 221 µM·h and 255 µM·h; CL/F [2, 6]: 18.1 mL/day/kg; Cmax [2, 6]: 1.1 µM and 1.26 µM; T1/2 [2, 6]: 91.7 h

Which AUC0-inf [1] does the source give for “[pGlu]GSPSGIVTS[αMeL]DVPT[Aib][αMeL]LQKILEQERAEKARQQAK([γGlu-AEEA-εLys-C20 diacid])EAAEILAQV-NH2 [SEQ ID NO: 22, Pyr-GSPSGIVTS αMeL DVPT Aib αMeL LQKILEQERAEKARQQAK(γE-(2-[2-(2-Amino-ethoxy)-ethoxy]-acetyl)-ϵK-CO-(CH2)18-CO2H)EAAEILAQV-NH2]” here?
The AUC0-inf was 15 µM·h.

What about the CL/F [1] of the same substance?
The CL/F was 162 mL/day/kg.

What about the Cmax [1] of the same substance?
Its Cmax is 0.27 µM.

What about the Tmax [1] of the same substance?
The Tmax was 24 h.

And the half-life [1]?
Its half-life is 25.1 h.

What about the clearance [2, 7] of the same substance?
Its clearance is 9.89 mL/day/kg.

What about the half-life [2, 7] of the same substance?
The half-life was 98.1 h.

And the clearance [2, 8]?
Its clearance is 9.41 mL/day/kg.

And the half-life [2, 8]?
Its half-life is 83.1 h.

And the half-life ([2]; both sexes, cynomolgus monkey, plasma, sc, 183 nmol/kg, single subcutaneous dose 183 nmol/kg, Mean)?
Its half-life is 136 h.

And the CL/F ([2]; both sexes, cynomolgus monkey, plasma, sc, 183 nmol/kg, single subcutaneous dose 183 nmol/kg, Mean, read-out: CL/F (converted))?
Its CL/F is 12.9 mL/day/kg.

What about the Tmax ([2]; both sexes, cynomolgus monkey, plasma, sc, 183 nmol/kg, single subcutaneous dose 183 nmol/kg, Mean, read-out: Tmax) of the same substance?
Its Tmax is 60 h.

And the CL/F ([2]; both sexes, cynomolgus monkey, plasma, sc, 183 nmol/kg, single subcutaneous dose 183 nmol/kg, individual animal, read-out: CL/F (converted))?
Its CL/F is 12.5 mL/day/kg.

And the Tmax ([2]; both sexes, cynomolgus monkey, plasma, sc, 183 nmol/kg, single subcutaneous dose 183 nmol/kg, individual animal, read-out: Tmax)?
The Tmax was 72 h.

And the AUC0-inf ([2]; both sexes, cynomolgus monkey, plasma, sc, single subcutaneous dose 183 nmol/kg, Mean, read-out: AUC0-inf)?
The AUC0-inf was 365 µM·h.

And the Cmax ([2]; both sexes, cynomolgus monkey, plasma, sc, single subcutaneous dose 183 nmol/kg, Mean, read-out: Cmax)?
Its Cmax is 2 µM.

And the AUC0-inf ([2]; both sexes, cynomolgus monkey, plasma, single intravenous dose 183 nmol/kg, Mean, read-out: AUC0-inf)?
Its AUC0-inf is 446 µM·h.

And the C0 ([2]; both sexes, cynomolgus monkey, plasma, single intravenous dose 183 nmol/kg, Mean, read-out: C0)?
Its C0 is 4.74 µM.

What about the “AUC0-inf” value [2, 9] of the same substance?
The value was 467 µM·h and 424 µM·h.

And the “C0” value [2, 9]?
Its value is 4.16 µM and 5.32 µM.

And the “CL” value [2, 9]?
Its value is 10.3 mL/day/kg.

And the “T1/2” value [2, 9]?
Its value is 113 h.

What about the “AUC0-inf” value [2, 10] of the same substance?
The value was 387 µM·h and 342 µM·h.

What about the “CL/F” value [2, 10] of the same substance?
Its value is 13.2 mL/day/kg.

What about the “Cmax” value [2, 10] of the same substance?
Its value is 1.72 µM and 2.28 µM.

What about the “T1/2” value [2, 10] of the same substance?
The value was 182 h and 90.2 h.

What about the “Tmax” value [2, 10] of the same substance?
Its value is 48 h.

With “{C20 diacid-εLys-AEEA-γGlu}-GSPSIVTS[αMeL]DVPT[Aib][αMeL]LQKILEQERAEKARQQATEAAEILAQV-NH2 [SEQ ID NO: 25]” as the substance, how does the AUC0-inf [1] read?
The AUC0-inf was 25 µM·h.

And the CL/F [1]?
Its CL/F is 96.2 mL/day/kg.

What about the Cmax [1] of the same substance?
Its Cmax is 0.366 µM.

And the Tmax [1]?
The Tmax was 24 h.

What about the half-life [1] of the same substance?
The half-life was 32.5 h.

And the clearance [2, 11]?
The clearance was 11.5 mL/day/kg.

What about the half-life [2, 11] of the same substance?
The half-life was 113 h.

And the clearance [2, 12]?
The clearance was 12.8 mL/day/kg.

What about the half-life [2, 12] of the same substance?
The half-life was 100 h.

What about the half-life ([2]; both sexes, cynomolgus monkey, plasma, sc, 190 nmol/kg, single subcutaneous dose 190 nmol/kg, Mean) of the same substance?
The half-life was 199 h.

What about the CL/F ([2]; both sexes, cynomolgus monkey, plasma, sc, 190 nmol/kg, single subcutaneous dose 190 nmol/kg, Mean, read-out: CL/F (converted)) of the same substance?
Its CL/F is 12.3 mL/day/kg.

What about the Tmax ([2]; both sexes, cynomolgus monkey, plasma, sc, 190 nmol/kg, single subcutaneous dose 190 nmol/kg, Mean, read-out: Tmax) of the same substance?
Its Tmax is 24 h.

What about the half-life ([2]; both sexes, cynomolgus monkey, plasma, sc, 190 nmol/kg, single subcutaneous dose 190 nmol/kg, individual animal) of the same substance?
Its half-life is 184 h.

And the CL/F ([2]; both sexes, cynomolgus monkey, plasma, sc, 190 nmol/kg, single subcutaneous dose 190 nmol/kg, individual animal, read-out: CL/F (converted))?
The CL/F was 14.4 mL/day/kg.

And the Tmax ([2]; both sexes, cynomolgus monkey, plasma, sc, 190 nmol/kg, single subcutaneous dose 190 nmol/kg, individual animal, read-out: Tmax)?
Its Tmax is 24 h.

And the AUC0-inf ([2]; both sexes, cynomolgus monkey, plasma, sc, single subcutaneous dose 190 nmol/kg, Mean, read-out: AUC0-inf)?
Its AUC0-inf is 458 µM·h.

What about the Cmax ([2]; both sexes, cynomolgus monkey, plasma, sc, single subcutaneous dose 190 nmol/kg, Mean, read-out: Cmax) of the same substance?
The Cmax was 1.61 µM.

And the AUC0-inf ([2]; both sexes, cynomolgus monkey, plasma, single intravenous dose 190 nmol/kg, Mean, read-out: AUC0-inf)?
The AUC0-inf was 402 µM·h.

And the C0 ([2]; both sexes, cynomolgus monkey, plasma, single intravenous dose 190 nmol/kg, Mean, read-out: C0)?
The C0 was 3.5 µM.

And the “AUC0-inf” value [2, 13]?
Its value is 355 µM·h and 449 µM·h.

What about the “C0” value [2, 13] of the same substance?
Its value is 3.04 µM and 3.96 µM.

And the “CL” value [2, 13]?
Its value is 10.1 mL/day/kg.

And the “T1/2” value [2, 13]?
Its value is 126 h.

What about the “AUC0-inf” value [2, 14] of the same substance?
The value was 364 µM·h and 551 µM·h.

And the “CL/F” value [2, 14]?
Its value is 10.2 mL/day/kg.

And the “Cmax” value [2, 14]?
Its value is 1.54 µM and 1.68 µM.

And the “T1/2” value [2, 14]?
Its value is 214 h.
